# Earlier results in patent US6768024B1, “Triamine derivative melanocortin receptor ligands and methods of using same” (Lion Bioscience AG, priority 2000, dated 2004).
# Experiments:
# rats = conditions: IP, ICV
# rodent models = conditions: normal, Zucker fatty and diet-induced obesity rodent models
# human subjects = conditions: pilot phase I
compound,measurement,setting,value
Ac-Nle-Gln-His-(D)-Phe-Arg-(D)-Trp-Gly-NH2 [HP228],hypophagia and weight loss,rats,notable hypophagia and weight loss
CC(C)CC(N(C)C)C1(c2ccc(Cl)cc2)CCC1 (stereo not drawn) [Sibutramine],body weight,rodent models,lower body weight
MELANOTAN-II,penile erections,human subjects,cause penile erections
